pIC50: −log10 of the molar value.
These compounds were tested against T1, Recombinant human renin (Homo sapiens, UniProt P00797) (assay: In vitro enzymatic activity assay of Renin inhibitors (fluorescence, QXL520/HiLyteFluo488 peptide substrate)). Details: recombinant human renin 3 nM, 1 μM substrate, 37° C., pH 7.4; values given as ranges; read-out: IC50 of Exemplified Compounds Against Renin.
T1 construct: isolate the active form (residues 67-406); made in house; host or cells: FreeStyle 293-F cells (transient expression of pcDNA3.1(+)/hREN)
T1 sequence (P00797 67-406): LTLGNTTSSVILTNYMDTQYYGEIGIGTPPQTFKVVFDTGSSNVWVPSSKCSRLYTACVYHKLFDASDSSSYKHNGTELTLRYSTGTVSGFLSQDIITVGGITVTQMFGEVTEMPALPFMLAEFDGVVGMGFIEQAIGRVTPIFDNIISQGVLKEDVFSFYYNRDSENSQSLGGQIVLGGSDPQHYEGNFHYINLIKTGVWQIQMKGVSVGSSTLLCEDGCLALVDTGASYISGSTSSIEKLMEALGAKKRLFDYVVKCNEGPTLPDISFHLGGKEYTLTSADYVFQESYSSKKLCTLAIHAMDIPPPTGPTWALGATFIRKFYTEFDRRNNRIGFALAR
Type: biochemical
Text: Test compounds in varying concentrations may be reacted with recombinant human renin in the presence of substrate, e.g., QXL520-γ-Abu-Ile-His-Pro-Phe-His-Leu-Val-Ile-His-Thr-Lys (HiLyteFluo488)-Arg-OH (Anaspec, San Jose, Calif.). The reaction can be followed kinetically using fluorescence (excitation λ=485 nm; emission λ=538 nm). Inhibition constants (IC50) may be calculated by non-linear curve fitting of the compound concentrations and fluorescence intensities to the standard IC50 equation.
Solutions of test compounds in varying concentrations (<2 mM final concentration) are prepared in dimethyl sulfoxide (DMSO) and then diluted into assay buffer comprising 50 mM Hepes, 1 mM EDTA, 1 mM DTT, 0.1 mg/ml BSA, 0.01% Brij35, pH 7.4. Alternatively, the assay can be performed with a high BSA concentration, wherein the buffer contains an additional 2% BSA.
Recombinant human renin (3 nM final concentration) is added to the dilutions and pre-incubated with the compounds for 10 minutes at 37° C. As described in Examples A-C above, human Renin can be obtained by expressing preprorenin (residue 1-406) in mammalian cells, treating the prorenin (residues 24-406) contained in the culture supernatant with trypsin, and isolate the active form (residues 67-406). After pre-incubation, the reaction is initiated with 1 μM of substrate QXL520-γ-Abu-Ile-His-Pro-Phe-His-Leu-Val-Ile-His-Thr-Lys (HiLyteFluo488)-Arg-OH (Anaspec, San Jose, Calif.). The final DMSO in the assay is 5%. The total volume of the reaction mixture is 20 μL, which can be placed on Greiner 384-well small volume plates.
Renin activity may be determined via fluorescence (excitation λ=485 nm; emission λ=538 nm), e.g., on a Molecular Devices SPECTROmax GEMINI XPS. The fluorescence intensity is determined upon the addition of substrate and determined again after incubation at 37° C. for one hour. The fluorescence intensity of a blank (no inhibition) using vehicle alone is also determined. Renin activity is linearly proportional to the change in fluorescence observed (final−initial).
The percent inhibition of Renin at a given compound concentration is defined as:
100%×[1−(Fcompound/Fblank)]
where Fcompound is the observed fluorescence at a given concentration of test compound and Fblank is the observed fluorescence in the presence of vehicle alone.
The pIC50 value (negative log of the molar concentration of the compound that produces 50% inhibition) of a test compound is calculated by non-linear least squares curve fitting of the equation: […]
to percent inhibition versus compound concentration. The 50% inhibitory concentration (IC50) of a test compound is calculated by raising 10 to the negative pIC50 (10^−pIC50).

Row | Compound | pIC50
1 | CC(=O)c1cccc(Oc2ccccc2CCC(=O)N2CCNC[C@H]2Cc2ccccc2)c1 [Example 36, (R)-3-(2-(3-Acetylphenoxy)phenyl)-1-(2-benzylpiperazin-1-yl)propan-1-one] | 5.30 to 6.30
2 | NC(=O)c1cccc(Oc2ccccc2CCC(=O)N2CCNC[C@H]2Cc2ccccc2)c1 [Example 37, (R)-3-(2-(3-(2-benzylpiperazin-1-yl)-3-oxopropyl)phenoxy)benzamide] | 5.30 to 6.30
3 | CC(=O)NCc1cccnc1Oc1ccccc1CCC(=O)N1CCNC[C@H]1Cc1ccccc1 [Example 38, (R)—N-((2-(2-(3-(2-benzylpiperazin-1-yl)-3-oxopropyl)phenoxy)-pyridin-3-yl)methyl)acetamide] | 5.30 to 6.30
4 | CC(=O)NCc1c(C)cc(C)nc1Oc1ccccc1CCC(=O)N1CCNC[C@H]1Cc1ccccc1 [Example 39, (R)—N-((2-(2-(3-(2-benzylpiperazin-1-yl)-3-oxopropyl)phenoxy)-4,6-dimethylpyridin-3-yl)methyl)acetamide] | > 6.30
5 | CC(=O)NCc1cc(C)ccc1Oc1ccccc1CCC(=O)N1CCNC[C@H]1Cc1ccccc1 [Example 40, (R)—N-(2-(2-(3-(2-benzylpiperazin-1-yl)-3-oxopropyl)phenoxy)-5-methylbenzyl)acetamide] | > 6.30
6 | COc1ccc(Oc2ccccc2CCC(=O)N2CCNC[C@H]2Cc2ccccc2)c(CNC(C)=O)c1 [Example 41, (R)—N-(2-(2-(3-(2-benzylpiperazin-1-yl)-3-oxopropyl)phenoxy)-5-methoxybenzyl)acetamide] | > 6.30
7 | CC(=O)NCc1ccc(C)nc1Oc1ccc(C)cc1CCC(=O)N1CCNC[C@H]1Cc1ccccc1 [Example 42, (R)—N-((2-(2-(3-(2-benzylpiperazin-1-yl)-3-oxopropyl)-4-methylphenoxy)-6-methylpyridin-3-yl)methyl)acetamide] | 5.30 to 6.30
8 | CC(=O)NCc1cc(C)ccc1Oc1ccc(C)cc1CCC(=O)N1CCNC[C@H]1Cc1ccccc1 [Example 43, (R)—N-(2-(2-(3-(2-benzylpiperazin-1-yl)-3-oxopropyl)-4-methylphenoxy)-5-methylbenzyl)acetamide] | > 6.30
9 | CC(=O)NCc1ccc(C)nc1Oc1cc(C)ccc1CCC(=O)N1CCNC[C@H]1Cc1ccccc1 [Example 44, (R)—N-((2-(2-(3-(2-benzylpiperazin-1-yl)-3-oxopropyl)-5-methylphenoxy)-6-methylpyridin-3-yl)methyl)acetamide] | 5.30 to 6.30
10 | CC(=O)NCc1cc(C(F)(F)F)ccc1Oc1cc(C)ccc1CCC(=O)N1CCNC[C@H]1Cc1ccccc1 [Example 45, (R)—N-(2-(2-(3-(2-benzylpiperazin-1-yl)-3-oxopropyl)-5-methylphenoxy)-5-(trifluoromethyl)benzyl)acetamide] | 5.30 to 6.30
11 | CC(=O)NCc1cc(C)ccc1Oc1cc(C)ccc1CCC(=O)N1CCNC[C@H]1Cc1ccccc1 [Example 46, (R)—N-(2-(2-(3-(2-benzylpiperazin-1-yl)-3-oxopropyl)-5-methylphenoxy)-5-methylbenzyl)acetamide] | > 6.30
12 | CC(=O)NCc1cc(C(F)(F)F)ccc1Oc1ccc(C)cc1CCC(=O)N1CCNC[C@H]1Cc1ccccc1 [Example 47, (R)—N-(2-(2-(3-(2-benzylpiperazin-1-yl)-3-oxopropyl)-4-methylphenoxy)-5-(trifluoromethyl)benzyl)acetamide] | 5.30 to 6.30
13 | CC(=O)NCCCc1ccccc1Oc1ccccc1CCC(=O)N1CCNC[C@H]1Cc1ccccc1 [Example 48, (R)—N-(3-(2-(2-(3-(2-benzylpiperazin-1-yl)-3-oxopropyl)phenoxy)-phenyl)propyl)acetamide] | 5.30 to 6.30
14 | CC(=O)NCCc1cc(C)ccc1Oc1ccccc1CCC(=O)N1CCNC[C@H]1Cc1ccccc1 [Example 49, (R)—N-(2-(2-(3-(2-benzylpiperazin-1-yl)-3-oxopropyl)phenoxy)-5-methylphenethyl)acetamide] | > 6.30

The next lines start with the values.

Row | pIC50 | Compound
15 | > 6.30 | Cc1ccc(Oc2ccccc2CCC(=O)N2CCNC[C@H]2Cc2ccccc2)cc1 [Example 50, (R)-1-(2-benzylpiperazin-1-yl)-3-(2-(p-tolyloxy)phenyl)propan-1-one]
16 | 5.30 to 6.30 | COc1ccc(Oc2ccccc2CCC(=O)N2CCNC[C@H]2Cc2ccccc2)cc1 [Example 51, (R)-1-(2-benzylpiperazin-1-yl)-3-(2-(4-methoxyphenoxy)-phenyl)propan-1-one]
17 | 4.30 to 5.30 | O=C(CCC1(c2ccccc2)CCCCC1=O)N1CCNC[C@H]1Cc1ccccc1 (stereo partly drawn) [Example 52, 2-(3-((R)-2-benzylpiperazin-1-yl)-3-oxopropyl)-2-phenylcyclohexanone]
18 | > 6.30 | O=C(CCc1ccccc1Cc1ccccc1)N1CCNC[C@H]1Cc1ccccc1 [Example 53, (R)-3-(2-benzylphenyl)-1-(2-benzylpiperazin-1-yl)propan-1-one]
19 | 4.30 to 5.30 | Cc1nc(-c2ccc(Cl)cc2)c(CCC(=O)N2CCNC[C@H]2Cc2ccccc2)o1 [Example 54, (R)-1-(2-benzylpiperazin-1-yl)-3-(4-(4-chlorophenyl)-2-methyloxazol-5-yl)propan-1-one]
20 | 4.30 to 5.30 | O=C(CCc1nc2ccccc2oc1=O)N1CCNC[C@H]1Cc1ccccc1 [Example 55, (R)-3-(3-(2-benzylpiperazin-1-yl)-3-oxopropyl)-2H-benzo[b][1,4]-oxazin-2-one]
21 | > 6.30 | O=C(CCc1ccccc1Cc1ccc(Cl)cc1)N1CCNC[C@H]1Cc1ccccc1 [Example 56, (R)-1-(2-benzylpiperazin-1-yl)-3-(2-(4-chlorobenzyl)phenyl)propan-1-one]
22 | < 4.30 | COc1ccccc1OCC(=O)N1CCNC[C@H]1Cc1ccccc1 [Example 57, (R)-1-(2-benzylpiperazin-1-yl)-2-(2-methoxyphenoxy)ethanone]
23 | 4.30 to 5.30 | O=C(CCN(c1ccccc1)c1ccccc1)N1CCNC[C@H]1Cc1ccccc1 [Example 58, (R)-1-(2-benzylpiperazin-1-yl)-3-(diphenylamino)propan-1-one]
24 | < 4.30 | COc1cc(CCC(=O)N2CCNC[C@H]2Cc2ccccc2)ccc1OC(C)=O [Example 59, (R)-4-(3-(2-benzylpiperazin-1-yl)-3-oxopropyl)-2-methoxyphenyl acetate]
25 | 5.30 to 6.30 | O=C(CCC(=O)N1CCNC[C@H]1Cc1ccccc1)N(c1ccccc1)c1ccccc1 [Example 60, (R)-4-(2-benzylpiperazin-1-yl)-4-oxo-N,N-diphenylbutanamide]
26 | > 6.30 | CC1(C)CC(C(CC(=O)N2CCNC[C@H]2Cc2ccccc2)c2ccccc2)CCO1 (stereo partly drawn) [Example 61, 1-((R)-2-benzylpiperazin-1-yl)-3-(2,2-dimethyltetrahydro-2H-pyran-4-yl)-3-phenylpropan-1-one]
27 | 4.30 to 5.30 | O=C(COc1cccc(Cc2ccccc2)c1)N1CCNC[C@H]1Cc1ccccc1 [Example 62, (R)-2-(3-benzylphenoxy)-1-(2-benzylpiperazin-1-yl)ethanone]
28 | 5.30 to 6.30 | O=C(CCc1nc(-c2ccccc2)c(-c2ccccc2)o1)N1CCNC[C@H]1Cc1ccccc1 [Example 63, (R)-1-(2-benzylpiperazin-1-yl)-3-(4,5-diphenyloxazol-2-yl)propan-1-one]
29 | 4.30 to 5.30 | O=C(NC1(CC(=O)N2CCNC[C@H]2Cc2ccccc2)CCCCC1)c1ccccc1 [Example 64, (R)—N-(1-(2-(2-benzylpiperazin-1-yl)-2-oxoethyl)cyclohexyl)benzamide]
30 | 5.30 to 6.30 | O=C(CSC(c1ccccc1)c1ccccc1)N1CCNC[C@H]1Cc1ccccc1 [Example 65, (R)-2-(benzhydrylthio)-1-(2-benzylpiperazin-1-yl)ethanone]
31 | > 6.30 | N#CCCc1ccccc1Oc1ccccc1CCC(=O)N1CCNC[C@H]1Cc1ccccc1 [Example 66, (R)-3-(2-(2-(3-(2-benzylpiperazin-1-yl)-3-oxopropyl)phenoxy)phenyl)propanenitrile]

From patent US20100210635A1, “RENIN INHIBITORS” (Takeda Pharmaceutical Company Limited, priority 2006, published 2010)
